Reference: patent publication US20230064983A1 (priority 2020, published 2023)
“And” between values parts separate entries of the source, which are not always exact repeats. Identical values can stand only once. Like-named read-outs stand apart in the source and are kept apart here.

Assays:
[1] = target: Ba/F3-EGFR-D770_N771insSVD cells (Homo sapiens, UniProt P00533, DUP768-770, cells depend on it); experiment: Ba/F3 cell survival assay, EGFR D770_N771insSVD; assay type: cell-based; conditions: Cell Titer-Glo, 48 h, without IL-3; Table 4; read-out: BA/F3 (insSVD) IC50
Bub1 = target: T1, Bub1 (Homo sapiens, UniProt O43683); experiment: Bub1 high ATP kinase assay (TR-FRET); assay type: biochemical; conditions: 2 mM ATP, Table 3
T1 construct: catalytic domain of human Bub1 (amino acids 704-1085); His6 (N); made in house; host or cells: insect cells (Hi5)
Description: Bub1 high ATP Kinase Assay
Bub1-inhibitory activity of compounds of the present invention at a high ATP concentration was quantified employing the Bub1 TR-FRET high ATP kinase assay as described in the following paragraphs.
N-terminally His6-tagged recombinant catalytic domain of human Bub1 (amino acids 704-1085), expressed in insect cells (Hi5) and purified by Ni-NTA affinity chromatography and subsequent size exclusion chromatography, was used as enzyme. As substrate for the kinase reaction the biotinylated peptide biotin-Ahx-[…] (C-terminus in amid form) was used which can be purchased e.g. form the company Biosyntan (Berlin, Germany).
Then the kinase reaction was started by the addition of 2 μl of a solution of Bub1 in assay buffer and the resulting mixture was incubated for a reaction time of 60 min at 22° C. The concentration of Bub1 was adjusted depending of the activity of the enzyme lot and was chosen appropriate to have the assay in the linear range, a typical concentration is about 200 ng/ml. The reaction was stopped by the addition of 3 μl of a solution of TR-FRET detection reagents (0.167 μM streptavidine-XL665 [Cisbio Bioassays, Codolet, France] and 1.67 nM anti-phosho-Serine antibody [Merck Millipore, cat. #35-002] and 0.67 nM LANCE EU-W1024 labeled anti-mouse IgG antibody [Perkin-Elmer, product no. AD0077, as an alternative a Terbium-cryptate-labeled anti-mouse IgG antibody from Cisbio Bioassays can be used]) in an aqueous EDTA-solution (83.3 mM EDTA, 0.2% (w/v) bovine serum albumin in 100 mM HEPES pH 7.5).
The resulting mixture was incubated 1 h at 22° C. to allow the formation of complex between the phosphorylated biotinylated peptide and the detection reagents. Subsequently the amount of phosphorylated substrate was evaluated by measurement of the resonance energy transfer from the Eu-chelate to the streptavidine-XL. Therefore, the fluorescence emissions at 620 nm and 665 nm after excitation at 350 nm was measured in a TR-FRET reader, e.g. a Pherastar or Pherastar FS (both from BMG Labtechnologies, Offenburg, Germany) or a Viewlux (Perkin-Elmer). The ratio of the emissions at 665 nm and at 622 nm was taken as the measure for the amount of phosphorylated substrate.

Ba/F3-EGFR-WT cells = Ba/F3-EGFR-WT cells (Homo sapiens, UniProt P00533); experiment: Ba/F3 cell survival assay, wild type EGFR; assay type: cell-based; conditions: Cell Titer-Glo, 48 h, with 10 ng/mL EGF; Table 4; read-out: BA/F3 (wild type) IC50
[2] = target: T2, EGFR with insertion SVD between D770 and N771 (mutEGFR D770_N771insSVD) (Homo sapiens, UniProt P00533, DUP768-770); experiment: Exon20-Mutant-EGFR(D770_N771insSVD) kinase assay (TR-FRET); assay type: biochemical; conditions: 2 mM ATP, Table 2
T2 construct: amino acids R669 to A1210; made in house; host or cells: Sf9 insect cells (baculovirus)

[3] = Bub1 high ATP (2 mM) IC50, TR-FRET

T1 sequence (O43683 704-1085): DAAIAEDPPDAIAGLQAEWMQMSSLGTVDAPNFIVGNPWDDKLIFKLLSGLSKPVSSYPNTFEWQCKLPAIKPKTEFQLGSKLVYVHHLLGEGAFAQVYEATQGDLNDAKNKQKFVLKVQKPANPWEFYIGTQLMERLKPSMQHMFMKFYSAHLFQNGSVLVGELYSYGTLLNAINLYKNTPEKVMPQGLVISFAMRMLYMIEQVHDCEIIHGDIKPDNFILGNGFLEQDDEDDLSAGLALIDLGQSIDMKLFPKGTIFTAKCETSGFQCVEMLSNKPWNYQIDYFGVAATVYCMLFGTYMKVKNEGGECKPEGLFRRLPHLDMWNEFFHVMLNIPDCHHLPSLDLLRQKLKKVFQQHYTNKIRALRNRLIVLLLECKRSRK
Chain of Ba/F3-EGFR-WT cells (P00533 whole entry, looked up, stated change not applied): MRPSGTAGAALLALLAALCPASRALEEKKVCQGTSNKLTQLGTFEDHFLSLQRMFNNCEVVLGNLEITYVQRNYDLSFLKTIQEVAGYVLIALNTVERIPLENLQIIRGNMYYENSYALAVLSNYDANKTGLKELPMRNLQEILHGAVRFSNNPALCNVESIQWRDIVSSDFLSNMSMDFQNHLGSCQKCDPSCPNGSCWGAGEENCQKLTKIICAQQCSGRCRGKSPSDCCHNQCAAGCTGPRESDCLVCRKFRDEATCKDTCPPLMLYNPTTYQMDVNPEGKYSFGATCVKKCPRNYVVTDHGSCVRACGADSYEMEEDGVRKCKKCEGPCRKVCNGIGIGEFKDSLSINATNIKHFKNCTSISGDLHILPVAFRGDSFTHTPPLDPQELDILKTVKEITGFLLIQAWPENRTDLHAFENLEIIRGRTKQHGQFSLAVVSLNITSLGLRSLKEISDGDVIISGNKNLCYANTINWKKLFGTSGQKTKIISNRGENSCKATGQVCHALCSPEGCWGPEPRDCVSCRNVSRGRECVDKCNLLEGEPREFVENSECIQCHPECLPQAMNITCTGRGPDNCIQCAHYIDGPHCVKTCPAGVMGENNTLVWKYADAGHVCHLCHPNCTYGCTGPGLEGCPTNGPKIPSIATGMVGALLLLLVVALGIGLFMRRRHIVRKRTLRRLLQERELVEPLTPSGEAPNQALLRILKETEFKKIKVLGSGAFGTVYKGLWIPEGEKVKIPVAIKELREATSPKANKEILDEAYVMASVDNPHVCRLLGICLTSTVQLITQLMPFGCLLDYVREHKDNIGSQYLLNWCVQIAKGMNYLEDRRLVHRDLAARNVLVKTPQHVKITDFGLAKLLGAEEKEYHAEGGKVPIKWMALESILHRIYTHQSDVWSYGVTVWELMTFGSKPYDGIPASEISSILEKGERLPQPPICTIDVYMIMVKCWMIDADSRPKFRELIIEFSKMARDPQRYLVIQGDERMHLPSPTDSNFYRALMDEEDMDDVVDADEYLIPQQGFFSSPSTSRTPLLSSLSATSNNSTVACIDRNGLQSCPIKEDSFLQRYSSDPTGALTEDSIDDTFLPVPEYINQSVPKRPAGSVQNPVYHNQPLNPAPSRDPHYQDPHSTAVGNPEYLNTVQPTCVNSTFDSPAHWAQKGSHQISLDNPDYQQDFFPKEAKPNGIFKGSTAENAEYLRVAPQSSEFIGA
T2 sequence (P00533 other isoform, or with tags, fused parts or gaps DUP768-770): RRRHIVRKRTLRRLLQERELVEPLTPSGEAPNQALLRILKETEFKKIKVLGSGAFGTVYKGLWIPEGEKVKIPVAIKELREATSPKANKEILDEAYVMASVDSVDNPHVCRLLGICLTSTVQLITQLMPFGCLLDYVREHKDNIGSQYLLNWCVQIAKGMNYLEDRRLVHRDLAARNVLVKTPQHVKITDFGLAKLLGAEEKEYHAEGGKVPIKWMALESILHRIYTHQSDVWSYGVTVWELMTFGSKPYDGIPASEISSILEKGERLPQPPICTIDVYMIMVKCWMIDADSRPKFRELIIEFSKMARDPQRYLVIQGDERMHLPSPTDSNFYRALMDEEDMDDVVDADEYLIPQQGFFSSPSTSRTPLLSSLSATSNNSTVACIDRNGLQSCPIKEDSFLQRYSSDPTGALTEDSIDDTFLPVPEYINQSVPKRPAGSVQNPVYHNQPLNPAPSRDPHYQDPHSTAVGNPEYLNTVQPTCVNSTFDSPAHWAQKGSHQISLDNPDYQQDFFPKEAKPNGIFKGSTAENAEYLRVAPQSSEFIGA
Chain of Ba/F3-EGFR-D770_N771insSVD cells (P00533 with tags, fused parts or gaps DUP768-770): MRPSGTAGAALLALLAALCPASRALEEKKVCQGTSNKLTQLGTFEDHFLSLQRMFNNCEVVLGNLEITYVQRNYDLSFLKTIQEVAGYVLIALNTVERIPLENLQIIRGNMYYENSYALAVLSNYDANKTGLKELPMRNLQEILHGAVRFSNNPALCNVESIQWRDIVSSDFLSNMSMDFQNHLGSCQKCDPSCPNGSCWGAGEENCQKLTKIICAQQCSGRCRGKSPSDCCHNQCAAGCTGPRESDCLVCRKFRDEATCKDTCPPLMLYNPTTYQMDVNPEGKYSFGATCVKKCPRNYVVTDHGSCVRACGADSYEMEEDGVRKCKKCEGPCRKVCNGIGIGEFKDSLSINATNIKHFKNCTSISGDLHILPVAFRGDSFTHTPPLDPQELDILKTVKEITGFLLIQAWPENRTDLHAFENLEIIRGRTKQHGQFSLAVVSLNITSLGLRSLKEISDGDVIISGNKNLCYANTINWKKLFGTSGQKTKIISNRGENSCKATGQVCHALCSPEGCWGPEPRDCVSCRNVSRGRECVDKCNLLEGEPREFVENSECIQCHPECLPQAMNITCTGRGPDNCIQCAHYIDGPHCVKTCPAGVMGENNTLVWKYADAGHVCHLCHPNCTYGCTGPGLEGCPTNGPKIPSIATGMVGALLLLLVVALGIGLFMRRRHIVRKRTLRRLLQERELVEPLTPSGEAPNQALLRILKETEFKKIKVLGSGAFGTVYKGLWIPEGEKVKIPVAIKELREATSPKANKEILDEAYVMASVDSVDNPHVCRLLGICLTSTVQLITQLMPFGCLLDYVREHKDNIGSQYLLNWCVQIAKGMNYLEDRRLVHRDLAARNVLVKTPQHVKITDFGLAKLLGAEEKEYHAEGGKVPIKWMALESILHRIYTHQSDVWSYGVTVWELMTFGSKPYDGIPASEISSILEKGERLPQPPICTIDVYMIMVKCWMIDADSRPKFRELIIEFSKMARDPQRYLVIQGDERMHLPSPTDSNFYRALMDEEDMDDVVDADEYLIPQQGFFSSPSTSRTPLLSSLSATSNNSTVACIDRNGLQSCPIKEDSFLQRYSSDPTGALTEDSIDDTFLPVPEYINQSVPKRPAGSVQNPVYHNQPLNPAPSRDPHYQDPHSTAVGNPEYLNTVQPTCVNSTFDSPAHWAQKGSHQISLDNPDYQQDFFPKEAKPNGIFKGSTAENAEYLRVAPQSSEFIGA

Structure (SMILES) | IC50 (Bub1; [3]) [µM] | mutEGFR (D770_N771insSVD) kinase assay IC50 [2] | IC50 (Bub1; read-out: Bub1 high ATP (2 mM) IC50, TR-FRET) [µM] | GI50 [1] [nM] | GI50 (Ba/F3-EGFR-WT cells) [nM]
COc1c(Cl)cccc1Nc1c(-c2ccncc2OCC2COCCO2)[nH]c2c1C(=O)N[C@H](C)C2 (mixture of isomers) [Example 24, (6R)-3-(3-chloro-2-methoxy-anilino)-2-[3-(1,4-dioxan-2-ylmethoxy)-4-pyridyl]-6-methyl-1,5,6,7-tetrahydropyrrolo[3,2-c]pyridin-4-one] | 3.48 | 111 pM and <72.5 pM |  | 20.8 | 500
COc1c(Cl)cccc1Nc1c(-c2ccncc2OCC2COCCO2)[nH]c2c1C(=O)NCC2C (single isomer, unassigned) [Example 36, 3-(3-chloro-2-methoxy-anilino)-2-[3-(1,4-dioxan-2-ylmethoxy)-4-pyridyl]-7-methyl-1,5,6,7-tetrahydropyrrolo[3,2-c]pyridin-4-one] | 4.9 | 331 pM |  | 75.3 | 963
CCc1c(Cl)cccc1Nc1c(-c2ccncc2OC[C@@H]2CN(C)CCO2)[nH]c2c1C(=O)N[C@H](C)C2 [Example 91, (6R)-3-(3-chloro-2-ethylanilino)-6-methyl-2-(3-{[(2S)-4-methylmorpholin-2-yl]methoxy}pyridin-4-yl)-1,5,6,7-tetrahydro-4H-pyrrolo[3,2-c]pyridin-4-one] | > 20 | 334 pM |  | 30.2 | 556
Cc1c(Cl)cccc1Nc1c(-c2ccncc2OCC2COC(C)(C)CO2)[nH]c2c1C(=O)NCC2C (centres unmarked) [Example 62, 3-(3-chloro-2-methyl-anilino)-2-[3-[(5,5-dimethyl-1,4-dioxan-2-yl)methoxy]-4-pyridyl]-7-methyl-1,5,6,7-tetrahydropyrrolo[3,2-c]pyridin-4-one] | 8.03 | 329 pM |  | 52.6 | 1100
COc1c(Cl)cccc1Nc1c(-c2ccncc2OC[C@@H]2CCO2)[nH]c2c1C(=O)N[C@@H](C)C2 [Example 7, (6S)-3-(3-chloro-2-methoxyanilino)-6-methyl-2-(3-{[(2S)-oxetan-2-yl]methoxy}pyridin-4-yl)-1,5,6,7-tetrahydro-4H-pyrrolo[3,2-c]pyridin-4-one] | > 20 | 85.4 pM and <72.5 pM |  | 25.7 | 384
COc1c(Cl)cccc1Nc1c(-c2ccncc2OCC2CCCCO2)[nH]c2c1C(=O)N[C@H](C)C2 (mixture of isomers) [Example 27, (6R)-3-(3-chloro-2-methoxy-anilino)-6-methyl-2-[3-(tetrahydropyran-2-ylmethoxy)-4-pyridyl]-1,5,6,7-tetrahydropyrrolo[3,2-c]pyridin-4-one] | > 5.7 | 97.3 pM |  | 12 | 305
Cc1c(Cl)cccc1Nc1c(-c2ccncc2OC[C@@H]2CCCO2)[nH]c2c1C(=O)NCC2C (single isomer, unassigned) [Example 60] | 1.62 | 603 pM |  | 175 | 1070
COc1c(Cl)cccc1Nc1c(-c2ccncc2OCC2COCCO2)[nH]c2c1C(=O)N[C@H](C)C2 (single isomer, unassigned) [Example 25] | 5.41 | 141 pM |  | 25.9 | 358
COc1c(Cl)cccc1Nc1c(-c2ccncc2OCC(C)(C)OC)[nH]c2c1C(=O)NCC2CCO (single isomer, unassigned) [Example 14, 3-(3-chloro-2-methoxyanilino)-7-(2-hydroxyethyl)-2-[3-(2-methoxy-2-methylpropoxy)pyridin-4-yl]-1,5,6,7-tetrahydro-4H-pyrrolo[3,2-c]pyridin-4-one] | 5.39 | 139 pM |  | 21 | 262
COc1c(Cl)cccc1Nc1c(-c2ccncc2OCC2COC(C)(C)CO2)[nH]c2c1C(=O)N[C@H](C)C2 (single isomer, unassigned) [Example 78] | > 20 | 260 pM |  | 20.7 | 488
COc1c(Cl)cccc1Nc1c(-c2ccncc2OC[C@@H]2CCCO2)[nH]c2c1C(=O)NCC2C (single isomer, unassigned) [Example 32] | 3.64 |  |  | 52.7 | 737

Further lines, with some results ahead:

IC50 (Bub1; [3]) [µM] | mutEGFR (D770_N771insSVD) kinase assay IC50 [2] | IC50 (Bub1; read-out: Bub1 high ATP (2 mM) IC50, TR-FRET) [µM] | Structure (SMILES) | GI50 [1] [nM] | GI50 (Ba/F3-EGFR-WT cells) [nM]
13.7 | 276 pM |  | COc1c(Cl)cccc1Nc1c(-c2ccncc2OC[C@@H]2COCCN2C)[nH]c2c1C(=O)NCC2CCO (single isomer, unassigned) [Example 116] | 169 | 2030
 | 796 pM | > 20 | COc1c(Cl)cccc1Nc1c(-c2ccncc2OCC2COC(C)(C)CO2)[nH]c2c1C(=O)NCC2C (single isomer, unassigned) [Example 97, 3-(3-chloro-2-methoxy-anilino)-2-[3-[(5,5-dimethyl-1,4-dioxan-2-yl)methoxy]-4-pyridyl]-7-methyl-1,5,6,7-tetrahydropyrrolo[3,2-c]pyridin-4-one] | 32.1 | 1130
1.03 | 121 pM |  | Cc1c(Cl)cccc1Nc1c(-c2ccncc2OCC2COCCO2)[nH]c2c1C(=O)N[C@H](C)C2 (stereo partly drawn) [Example 102, (6R)-3-(3-chloro-2-methylanilino)-2-{3-[(1,4-dioxan-2-yl)methoxy]pyridin-4-yl}-6-methyl-1,5,6,7-tetrahydro-4H-pyrrolo[3,2-c]pyridin-4-one] | 38.7 | 869
0.741 | 122 pM |  | COc1c(Cl)cccc1Nc1c(-c2ccncc2OCCC(C)OC)[nH]c2c1C(=O)N[C@H](C)C2 (single isomer, unassigned) [Example 122] | 23.8 | 506
1.21 | 333 pM |  | CCc1c(Cl)cccc1Nc1c(-c2ccncc2OC[C@@H]2COCCO2)[nH]c2c1C(=O)N[C@H](C)C2 [Example 110, (6R)-3-(3-chloro-2-ethylanilino)-2-(3-{[(2S)-1,4-dioxan-2-yl]methoxy}pyridin-4-yl)-6-methyl-1,5,6,7-tetrahydro-4H-pyrrolo[3,2-c]pyridin-4-one] | 40.3 | 780
1.1 | 279 pM |  | COc1c(Cl)cccc1Nc1c(-c2ccncc2OC[C@@H]2CCCO2)[nH]c2c1C(=O)NC1(CCC1)C2 [Example 126, 3′-(3-chloro-2-methoxyanilino)-2′-(3-{[(2S)-oxolan-2-yl]methoxy}pyridin-4-yl)-1′,7′-dihydrospiro[cyclobutane-1,6′-pyrrolo[3,2-c]pyridin]-4′(5′H)-one] | 46.4 | 814
> 20 | 115 pM |  | Cc1c(Cl)cccc1Nc1c(-c2ccncc2OC[C@@H]2CN(C)CCO2)[nH]c2c1C(=O)N[C@H](C)C2 [Example 107, (6R)-3-(3-chloro-2-methylanilino)-6-methyl-2-(3-{[(2S)-4-methylmorpholin-2-yl]methoxy}pyridin-4-yl)-1,5,6,7-tetrahydro-4H-pyrrolo[3,2-c]pyridin-4-one] | 25 | 546
13.2 | 456 pM |  | COc1c(Cl)cccc1Nc1c(-c2ccncc2OC[C@@H]2COCCN2C)[nH]c2c1C(=O)NCC2CCO (single isomer, unassigned) [Example 115] |  | 5420
